Values of other authors in patent US20250340675A1 (priority 2022, published 2025).

Tests used:
mice [1] = conditions: neurotoxic adverse effects; oral administration in mice
mice [2] = conditions: oral administration in mice
albino mice = conditions: mouse, in vivo
[3] = in vivo

OCCCCO [1,4-Butanediol]
no observed adverse effect level (NOAEL) (mice [1]): 100 mg/kg per day
median lethal dose (LD50) (mice [2]): 1,525 mg/kg

O=C(O)c1cc(O)c(O)c(O)c1 [gallic acid, 3,4,5-trihydroxy benzoic acid]
LD50 (acute toxicity) (albino mice): greater than 2000 mg/kg

Hyaluronic acid [HA]
half-life ([3]; human): 24÷48 hours
average turnover rate [3]: 5 g/day
